Results reported in patent publication US7897602B2, “Indolinone compounds as kinase inhibitors” (Development Center for Biotechnology, priority 2009, dated 2011).

How the values were obtained:
Format in all cases: biochemical
[1] = molecular target: T1, Aurora A kinase (Homo sapiens, UniProt O14965); assay: Aurora A kinase assay ([γ-33P]ATP, CHOCKtide substrate); settings: 1.0 μM test compound
T1 construct: purchased Upstate
T1 sequence (O14965 1-403): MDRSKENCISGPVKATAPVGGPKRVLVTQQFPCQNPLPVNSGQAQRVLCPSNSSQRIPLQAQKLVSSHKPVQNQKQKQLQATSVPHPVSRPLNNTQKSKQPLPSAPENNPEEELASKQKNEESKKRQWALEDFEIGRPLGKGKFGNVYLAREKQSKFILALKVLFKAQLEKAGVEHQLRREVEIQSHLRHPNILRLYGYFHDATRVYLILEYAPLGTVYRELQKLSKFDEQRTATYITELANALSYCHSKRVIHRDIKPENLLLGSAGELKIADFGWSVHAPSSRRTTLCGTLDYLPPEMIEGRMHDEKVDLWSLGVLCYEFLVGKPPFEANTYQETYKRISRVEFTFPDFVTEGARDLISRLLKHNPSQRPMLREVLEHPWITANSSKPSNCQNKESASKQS
Procedure, shortened: (§1)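 Radiometric filter-binding format: 33P incorporation into CHOCKtide counted after acid stop and filtration. Reactions ran 30 min at 33 °C, Aurora A with 10 μM ATP, Aurora B with 40 μM ATP. IC50 taken as concentration giving half-maximal kinase inhibition.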

[2] = molecular target: T2, Aurora B kinase (Homo sapiens, UniProt Q96GD4); assay: Aurora B kinase assay ([γ-33P]ATP, CHOCKtide substrate); settings: 1.0 μM test compound
T2 construct: purchased Cell signaling
Procedure, shortened: as §1

[3] = molecular target: T3, c-Met kinase (Homo sapiens, UniProt P08581); assay: c-Met kinase assay (33P incorporation into Poly(Glu-Tyr)); settings: 500 nM test compound
T3 construct: recombinant N-terminal 6×His-tagged c-Met kinase domain construct expressed from baculovirus; 6xHis (N); made in house
Procedure, shortened: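 Single-concentration test (500 nM compound) at 30° C for 30 min, pH 7.0 MOPS buffer with 100 μM ATP and [33P]-γ-ATP. Enzyme was baculovirus-expressed 6×His c-Met kinase domain (5 ng), substrate Poly(Glu-Tyr) 4:1. Inhibition percentage derived from filter-bound counts relative to DMSO control.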

T3 sequence (P08581 1078-1345 limits assumed): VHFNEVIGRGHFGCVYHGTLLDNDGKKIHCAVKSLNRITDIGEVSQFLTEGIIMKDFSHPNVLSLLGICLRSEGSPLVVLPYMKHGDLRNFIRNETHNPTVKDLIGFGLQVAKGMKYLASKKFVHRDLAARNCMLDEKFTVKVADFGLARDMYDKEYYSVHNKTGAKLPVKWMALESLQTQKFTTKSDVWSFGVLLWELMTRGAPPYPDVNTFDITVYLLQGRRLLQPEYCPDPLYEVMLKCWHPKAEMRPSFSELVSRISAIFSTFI
T2 sequence (Q96GD4 whole entry): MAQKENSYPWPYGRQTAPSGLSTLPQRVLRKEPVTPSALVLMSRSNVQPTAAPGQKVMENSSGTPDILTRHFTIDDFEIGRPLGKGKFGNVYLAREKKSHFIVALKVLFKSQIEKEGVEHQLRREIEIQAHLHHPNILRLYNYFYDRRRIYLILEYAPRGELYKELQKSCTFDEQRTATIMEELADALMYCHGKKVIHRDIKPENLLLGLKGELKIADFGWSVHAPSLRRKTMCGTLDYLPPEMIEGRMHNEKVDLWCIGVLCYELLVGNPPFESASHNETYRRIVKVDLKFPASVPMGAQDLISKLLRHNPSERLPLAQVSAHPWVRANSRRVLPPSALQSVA

| inhibition at 1 µM [1] | inhibition at 1 µM [2] | inhibition at 0.5 µM [3] | SMILES |
| --- | --- | --- | --- |
| 9.8% | -23% | -1.2% | CCOC(=O)CCc1c(/C=C2\C(=O)Nc3ccc(NC(=O)c4ccc(OC)cc4)cc32)[nH]c2c1C(=O)CCC2 [DCB-70141, (Z)-ethyl 3-(2-((5-(4-methoxybenzamido)-2-oxoindolin-3-ylidene)methyl)-4-oxo-4,5,6,7-tetrahydro-1H-indol-3-yl)propanoate] |
| 31.8% | 9.1% | -8.2% | COc1ccc(C(=O)Nc2ccc3c(c2)/C(=C/c2[nH]c4c(c2CCC(=O)O)C(=O)CCC4)C(=O)N3)cc1 [DCB-70143, (Z)-3-(2-((5-(4-methoxybenzamido)-2-oxoindolin-3-ylidene)methyl)-4-oxo-4,5,6,7-tetrahydro-1H-indol-3-yl)propanoic acid] |
| 80.7% | 30.2% | 74.9% | CN(c1cccc(Cl)c1)S(=O)(=O)c1ccc2c(c1)/C(=C/c1[nH]c3c(c1CCC(=O)O)C(=O)CCCC3)C(=O)N2 [DCB-70148, (Z)-3-(2-((5-(N-(3-chlorophenyl)-N-methylsulfamoyl)-2-oxoindolin-3-ylidene)methyl)-4-oxo-1,4,5,6,7,8-hexahydrocyclohepta[b]pyrrol-3-yl)propanoic acid] |
| 77.5% | 18.7% | 8.4% | O=C(O)CCc1c(/C=C2\C(=O)Nc3ccc(S(=O)(=O)Nc4ccc(F)c(Cl)c4)cc32)[nH]c2c1C(=O)CCCC2 [DCB-70149, (Z)-3-(2-((5-(N-(3-chloro-4-fluorophenyl)sulfamoyl)-2-oxoindolin-3-ylidene)methyl)-4-oxo-1,4,5,6,7,8-hexahydrocyclohepta[b]pyrrol-3-yl)propanoic acid] |
